In ChEMBL document CHEMBL1137602, “Synthesis of aromatic compounds containing a 1,1-dialkyl-2-trifluoromethyl group, a bioisostere of the tert-alkyl moiety” (Bioorg Med Chem Lett, 2007):

How the values were obtained:
[1] = target: Transient receptor potential cation channel subfamily V member 1 (Homo sapiens, UniProt Q8NER1); assay: Antagonist activity at human TRPV1 receptor; type: functional
[2] = Intrinsic clearance in human liver microsomes; type: ADME, Microsome
[3] = tested on: Liver microsomes; assay: Metabolic stability in human liver microsomes; type: ADME, Microsome

Chain of Transient receptor potential cation channel subfamily V member 1 (Q8NER1 whole entry): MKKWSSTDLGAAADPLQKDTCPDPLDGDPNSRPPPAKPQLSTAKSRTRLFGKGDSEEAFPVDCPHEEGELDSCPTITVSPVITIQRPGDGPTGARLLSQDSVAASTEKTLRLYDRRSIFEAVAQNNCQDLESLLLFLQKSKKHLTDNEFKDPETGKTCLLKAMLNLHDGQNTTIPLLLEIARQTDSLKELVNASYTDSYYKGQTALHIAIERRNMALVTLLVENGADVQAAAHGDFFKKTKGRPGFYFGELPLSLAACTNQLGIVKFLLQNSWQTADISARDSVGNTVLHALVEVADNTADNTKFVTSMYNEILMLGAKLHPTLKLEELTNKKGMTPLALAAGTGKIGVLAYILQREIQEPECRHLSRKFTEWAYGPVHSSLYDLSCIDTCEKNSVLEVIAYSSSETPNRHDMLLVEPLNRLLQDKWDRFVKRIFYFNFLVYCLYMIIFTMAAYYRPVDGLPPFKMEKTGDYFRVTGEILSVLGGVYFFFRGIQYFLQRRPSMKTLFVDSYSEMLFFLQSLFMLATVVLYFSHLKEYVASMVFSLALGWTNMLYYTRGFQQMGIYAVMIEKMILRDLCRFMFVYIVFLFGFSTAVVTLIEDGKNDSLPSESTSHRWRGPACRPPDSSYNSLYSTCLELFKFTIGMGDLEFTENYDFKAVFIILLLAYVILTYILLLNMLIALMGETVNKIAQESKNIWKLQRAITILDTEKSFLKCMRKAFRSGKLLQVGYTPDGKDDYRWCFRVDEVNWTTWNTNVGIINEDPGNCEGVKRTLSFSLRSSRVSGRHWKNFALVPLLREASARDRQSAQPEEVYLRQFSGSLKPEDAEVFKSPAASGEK

`CC(C)(C)c1ccc(NC(=O)c2ccc(-c3ncccc3Cl)cc2)cc1` gave an IC50 [1] of 0.037 µM and a CLint scaled [2] of 10.1 L/h/kg.
`O=C(Nc1ccc(C(F)(F)F)cc1)c1ccc(-c2ncccc2Cl)cc1` gave an IC50 [1] of 0.2 µM and a CLint scaled [2] of under 0.63 L/h/kg.
With `CC(C)(c1ccc(NC(=O)c2ccc(-c3ncccc3Cl)cc2)cc1)C(F)(F)F` the IC50 [1] was 0.042 µM, the CLint scaled [2] was 2.76 L/h/kg and the Activity [3] was “Active”.
With `COc1ccc(C(C)(C)C(F)(F)F)cc1CN[C@H]1CCCN[C@H]1c1ccccc1` the microsomal CLint [2] was 44.7 µL/min/mg and the Activity [3] was “Active”.
For `COc1ccc(C(C)(C)C)cc1CN[C@H]1CCCN[C@H]1c1ccccc1`, the microsomal CLint [2] was 87.9 µL/min/mg.
